Measurements from patent publication US8906826B2, “Herbicidal compositions comprising 4-amino-3-chloro-5-fluoro-6-(4-chloro-2-fluoro-3-methoxyphenyl) pyridine-2-carboxylic acid or a derivative thereof and imidazolinones” (Dow AgroSciences, LLC, priority 2012, dated 2014).

Legend:
ECHOR = test: In-water applied, transplanted paddy rice weeds (Example II); format: in vivo, Echinochloa oryzoides (Ard.) Fritsch
Method: Weed seeds or nutlets of the desired test plant species were planted in puddled soil (mud) prepared by mixing a shredded, non-sterilized mineral soil (50.5 percent silt, 25.5 percent clay, and 24 percent sand, with a pH of about 7.6 and an organic matter content of about 2.9 percent) and water at a 1:1 volumetric ratio. The prepared mud was dispensed in 365 mL aliquots into 16-ounce (oz.) non-perforated plastic pots with a surface area of 86.59 square centimeters (cm^2) leaving a headspace of 3 centimeters (cm) in each pot. Mud was allowed to dry overnight prior to planting or transplanting. Rice seeds were planted in Sun Gro MetroMix® 306 planting mixture, which typically has a pH of about 6.0 to about 6.8 and an organic matter content of about 30 percent, in plastic plug trays. Seedlings at the second or third leaf stage of growth were transplanted into 860 mL of mud contained in 32-oz. non-perforated plastic pots with a surface area of 86.59 cm^2 4 days prior to herbicide application. The paddy was created by filling the headspace of the pots with 2.5 to 3 cm of water. When required to ensure good germination and healthy plants, a fungicide treatment and/or other chemical or physical treatment was applied. The plants were grown for 4-22 days in a greenhouse with an approximate 14 h photoperiod which was maintained at about 29° C. during the day and about 26° C. during the night. Nutrients were added as Osmocote® (19:6:12, N:P:K+minor nutrients) at 2 g per 16-oz. pot and 4 g per 32-oz. pot. Water was added on a regular basis to maintain the paddy flood, and supplemental lighting was provided with overhead metal halide 1000-Watt lamps as necessary. The plants were employed for testing when they reached the first through fourth true leaf stage.
(§1) Treatments consisted of the acid or esters of 4-amino-3-chloro-5-fluoro-6-(4-chloro-2-fluoro-3-methoxy-phenyl)pyridine-2-carboxylic acid (compound A) each formulated as an SC and various herbicidal components alone and in combination. Forms of compound A were applied on an acid equivalent basis.
(§2) Other herbicidal components were applied on an acid equivalent basis and included the acetolactate synthase (ALS)-inhibiting imidazolinone herbicides imazethapyr ammonium salt formulated as Newpath®, imazamox ammonium salt formulated as Beyond®, imazapic ammonium salt formulated as Plateau®, imazapyr isopropylamine salt formulated as Arsenal®, imazamethabenz-methyl (technical material), and imazaquin isopropylamine salt formulated as Scepter®.
Treatment requirements for each compound or herbicidal component were calculated based upon the rates being tested, the concentration of active ingredient or acid equivalent in the formulation, an application volume of 2 mL per component per pot, and an application area of 86.59 cm^2 per pot.
For formulated compounds, a measured amount was placed in an individual 100 or 200 mL glass vial and was dissolved in a volume of 1.25% (v/v) Agri-Dex® crop oil concentrate to obtain application solutions.
For technical grade compounds, a weighed amount was placed in an individual 100 to 200 mL glass vial and was dissolved in a volume of acetone to obtain concentrated stock solutions. […] The concentrated stock solutions obtained were diluted with an equivalent volume of an aqueous mixture containing 2.5% (v/v) crop oil concentrate so that the final application solutions contained 1.25% (v/v) crop oil concentrate.
Applications were made by injecting with a pipetter appropriate amounts of the application solutions, individually and sequentially, into the aqueous layer of the paddy. Control plants were treated in the same manner with the solvent blank. Applications were made so that all treated plant material received the same concentrations of acetone and crop oil concentrate.
The treated plants and control plants were placed in a greenhouse as described above and water was added as needed to maintain a paddy flood. […]

CYPES = test: Postemergence foliar-applied, direct seeded rice weeds (Example I); format: in vivo, Cyperus esculentus L.
Description: Seeds or nutlets of the desired test plant species were planted in a soil matrix prepared by mixing a loam or sandy loam soil (e.g., 28.6 percent silt, 18.8 percent clay, and 52.6 percent sand, with a pH of about 5.8 and an organic matter content of about 1.8 percent) and calcareous grit in an 80 to 20 ratio. The soil matrix was contained in plastic pots with a volume of 1 quart and a surface area of 83.6 cm^2. When required to ensure good germination and healthy plants, a fungicide treatment and/or other chemical or physical treatment was applied. The plants were grown for 8-22 days in a greenhouse with an approximate 14 h photoperiod which was maintained at about 29° C. during the day and 26° C. during the night. Nutrients (Peters Excel® 15-5-15 5-Ca 2-Mg and iron chelate) were applied in the irrigation solution as needed and water was added on a regular basis. Supplemental lighting was provided with overhead metal halide 1000-Watt lamps as necessary. The plants were employed for testing when they reached the first through fourth true leaf stage.
as §1, with “(Compound A),” for “(compound A)”, “SC (suspension concentrate),” for “SC”
as §2, with “include” for “included the”, “(ALS)-inhibiting” for “(ALS)-inhibiting imidazolinone”, “herbicides (imidazolinone chemical class)” for “herbicides”, “material)” for “material),”, “Scepter®/Imagine®.” for “Scepter®.”
Treatment requirements were calculated based upon the rates being tested, the concentration of active ingredient or acid equivalent in the formulation, and a 12 mL application volume at a rate of 187 L/ha.
For treatments comprised of formulated compounds, measured amounts of compounds were placed individually in 25 mL glass vials and diluted in a volume of 1.25% (v/v) Agri-Dex® crop oil concentrated to obtain 12× stock solutions. […] Application solutions were prepared by adding an appropriate amount of each stock solution (e.g., 1 mL) and diluted to the appropriate final concentrations with the addition of 10 mL of an aqueous mixture of 1.25% (v/v) crop oil concentrate so that the final spray solutions contained 1.25+/−0.05% (v/v) crop oil concentrate.
For treatments comprised of technical compounds, weighed amounts can be placed individually in 25 mL glass vials and dissolved in a volume of 97:3 v/v acetone/DMSO to obtain 12× stock solutions. […] Application solutions can be prepared by adding an appropriate amount of each stock solution (e.g., 1 mL) and diluted to the appropriate final concentrations with the addition of 10 mL of an aqueous mixture of 1.5% (v/v) crop oil concentrate so that the final spray solutions contain 1.25% (v/v) crop oil concentrate. When technical materials are used, the concentrated stock solutions can be added to the spray solutions so that the final acetone and DMSO concentrations of the application solutions are 16.2% and 0.5%, respectively.
For treatments comprised of formulated and technical compounds, weighed amounts of the technical materials were placed individually in 25 mL glass vials and dissolved in a volume of 97:3 v/v acetone/DMSO to obtain 12× stock solutions, and measured amounts of the formulated compounds were placed individually in 25 mL glass vials and diluted in a volume of 1.5% (v/v) crop oil concentrate or water to obtain 12× stock solutions. […]

[1] = Imazethapyr ammonium 8.75 gae/ha
[2] = Compound A Benzyl Ester 8.75 gae/ha
[3] = Compound A Benzyl Ester 17.5 gae/ha

Cc1cnc(C2=NC(C)(C(C)C)C(=O)N2)c(C(=O)O)c1.N (racemic) [Imazapic ammonium, ammonium (±)-2-[4,5-dihydro-4-methyl-4-(1-methylethyl)-5-oxo-1H-imidazol-2-yl]-5-methyl-3-pyridinecarboxylic acid]
Visual Weed Control (%) - 25 DAA ECHOR Obs (ECHOR; Imazapic ammonium 4.38 gae/ha): 0%
Visual Weed Control (%) - 25 DAA ECHOR Obs (ECHOR; Imazapic ammonium 8.75 gae/ha): 0%
Visual Weed Control (%) - 25 DAA CHOR Obs (ECHOR; Imazapic ammonium 17.5 gae/ha): 0%
Visual Weed Control (%) - 25 DAA ECHOR Obs (ECHOR; Imazapic ammonium 17.5 gae/ha): 0%
Visual Weed Control (%) - 19 DAA ECHOR Obs (ECHOR; Imazapic ammonium 35 gae/ha): 78%

COc1c(Cl)ccc(-c2nc(C(=O)O)c(Cl)c(N)c2F)c1F [Compound A Acid, 4-amino-3-chloro-6-(4-chloro-2-fluoro-3-methoxyphenyl)-5-fluoropyridine-2-carboxylic acid]
Visual Weed Control (%) - 25 DAA CYPES Obs (CYPES; Compound A Acid 4.38 gae/ha): 50%
Visual Weed Control (%) - 25 DAA CHOR Obs (ECHOR; Compound A Acid 8.75 gae/ha): 0%
Visual Weed Control (%) - 25 DAA ECHOR Obs (ECHOR; Compound A Acid 8.75 gae/ha): 0%
Visual Weed Control (%) - 22 DAA ECHOR Obs (ECHOR; Compound A Acid 10.6 gae/ha): 15%
Visual Weed Control (%) - 25 DAA CHOR Obs (ECHOR; Compound A Acid 17.5 gae/ha): 0%
Visual Weed Control (%) - 25 DAA ECHOR Obs (ECHOR; Compound A Acid 17.5 gae/ha): 0%
Visual Weed Control (%) - 25 DAA CHOR Obs (ECHOR; Compound A Acid 35 gae/ha): 10%
Visual Weed Control (%) - 25 DAA ECHOR Obs (ECHOR; Compound A Acid 35 gae/ha): 10%
Visual Weed Control (%) - 19 DAA ECHOR Obs (ECHOR; Compound A Acid 42 gae/ha): 15%
Visual Weed Control (%) - 22 DAA ECHOR Obs (ECHOR; Compound A Acid 42.4 gae/ha): 40%

CCc1cnc(C2=NC(C)(C(C)C)C(=O)N2)c(C(=O)O)c1.N (racemic) [Imazethapyr ammonium, ammonium (±)-2-[4,5-dihydro-4-methyl-4-(1-methylethyl)-5-oxo-1H-imidazol-2-yl]-5-ethyl-3-pyridinecarboxylate]
Visual Weed Control (%) - 25 DAA CYPES Obs (CYPES; [1]): 0%
Visual Weed Control (%) - 25 DAA ECHOR Obs (ECHOR; [1]): 0%
Visual Weed Control (%) - 25 DAA ECHOR Obs (ECHOR; Imazethapyr ammonium 17.5 gae/ha): 0%
Visual Weed Control (%) - 25 DAA ECHOR Obs (ECHOR; Imazethapyr ammonium 35 gae/ha): 25%

COc1c(Cl)ccc(-c2nc(C(=O)OCc3ccccc3)c(Cl)c(N)c2F)c1F [Compound A Benzyl Ester, benzyl ester of 4-amino-3-chloro-5-fluoro-6-(4-chloro-2-fluoro-3-methoxy-phenyl)pyridine-2-carboxylic acid]
Visual Weed Control (%) - 25 DAA CYPES Obs (CYPES; Compound A Benzyl Ester 4.38 gae/ha): 70%
Visual Weed Control (%) - 25 DAA CYPES Obs (CYPES; [2]): 90%
Visual Weed Control (%) - 25 DAA CYPES Obs (CYPES; [3]): 85%
Visual Weed Control (%) - 25 DAA ECHOR Obs (ECHOR; [2]): 0%
Visual Weed Control (%) - 22 DAA ECHOR Obs (ECHOR; [3]): 30%

COCc1cnc(C2=NC(C)(C(C)C)C(=O)N2)c(C(=O)O)c1.N (racemic) [Imazamox ammonium, ammonium (±)-2-[4,5-dihydro-4-methyl-4-(1-methylethyl)-5-oxo-1H-imidazol-2-yl]-5-(methoxymethyl)-3-pyridinecarboxylate]
Visual Weed Control (%) - 25 DAA CYPES Obs (CYPES; Imazamox ammonium 5.6 gae/ha): 0%
Visual Weed Control (%) - 25 DAA CYPES Obs (CYPES; Imazamox ammonium 11.2 gae/ha): 0%
Visual Weed Control (%) - 25 DAA CYPES Obs (CYPES; Imazamox ammonium 22.4 gae/ha): 20%
Visual Weed Control (%) - 25 DAA ECHOR Obs (ECHOR; Imazamox ammonium 5.6 gae/ha): 0%
Visual Weed Control (%) - 25 DAA ECHOR Obs (ECHOR; Imazamox ammonium 11.2 gae/ha): 0%
Visual Weed Control (%) - 25 DAA ECHOR Obs (ECHOR; Imazamox ammonium 22.4 gae/ha): 0%
